What was measured:
RORα (mRORα) = biological target: T1, RORα (mRORα) (Mus musculus, UniProt P51448); assay: Transcriptional assay of RORα as GAL4 hybrid; type: cell-based; details: same format as the GAL4-RORγ assay
T1 construct: mRORα (NR1F1, aa 266-523); expressed in transfected cells; host or cells: CHO cells, transient transfection
Procedure: (§1) This example also describes several additional tests that were commonly performed to confirm the authenticity of a hit to RORγ. These tests also verified the validity of the transcriptional and biochemical assays used. […] In some cases, close analogs of a confirmed hit were obtained by synthesis or purchase from a commercial source. The series of compounds related to the confirmed hit was then tested in the biochemical and transcriptional assays. The rank order of the potency of the compounds was then compared. […] The data imply in turn that the compounds are binding to the same binding pocket. […]
(§2) Four hours after transfection, cells were dislodged with trypsin and seeded into a 384-well plate at 8,000 cells/well using a Titertek Multidrop 384. […] After incubation for 2 hours at 37 degrees centigrade, the conversion of resazurin to resorufin was measured by fluorescence (excitation at 570 nm and emission at 615 nm). […] Percent viability was determined as 2 hour fluorescence, minus background at t=0 hours, normalized to DMSO controls. […] Luminescence is detected with a Victor 2-V plate reader (Perkin-Elmer) and normalized to luciferase activity of DMSO control wells alone.

SF-1 (human SF-1) = biological target: T2, SF-1 (human SF-1) (Homo sapiens, UniProt Q13285); assay: Transcriptional assay of SF-1 as GAL4 hybrid; type: cell-based; details: same format as the GAL4-RORγ assay
T2 construct: human SF-1 (NR5A1, aa 198-462); expressed in transfected cells; host or cells: CHO cells, transient transfection
T2 sequence (Q13285 198-461 limits assumed): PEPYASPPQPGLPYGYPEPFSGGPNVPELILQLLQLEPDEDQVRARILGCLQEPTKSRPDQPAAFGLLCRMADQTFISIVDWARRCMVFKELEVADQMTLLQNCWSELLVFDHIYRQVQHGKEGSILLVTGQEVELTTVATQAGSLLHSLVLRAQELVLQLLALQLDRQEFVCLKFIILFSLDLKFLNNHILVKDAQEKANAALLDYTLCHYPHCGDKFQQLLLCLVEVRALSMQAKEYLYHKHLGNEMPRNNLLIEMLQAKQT
Procedure: as §1, §2

CHO cells = assay: Cytotoxicity in CHO cells (resazurin conversion); type: cell-based, Chinese Hamster
Procedure: Four hours after transfection, cells were dislodged with trypsin and seeded into a 384-well plate at 8,000 cells/well using a Titertek Multidrop 384. Edge effects within the 384-well plate were minimized by leaving plates at room temperature for 30 min so that cells plated evenly within each well (Lundholt, Scudder et al. 2003). Plates are maintained at 37° C. in a humidified atmosphere with 7% CO2 overnight. […] Approximately 40 hours later, cytotoxicity in the assay well was characterized by addition of the dye resazurin (O'Brien, Wilson et al. 2000) to a final concentration of 3 μM. After incubation for 2 hours at 37 degrees centigrade, the conversion of resazurin to resorufin was measured by fluorescence (excitation at 570 nm and emission at 615 nm). […] Percent viability was determined as 2 hour fluorescence, minus background at t=0 hours, normalized to DMSO controls. For detection of luciferase activity, media was removed from plates after the measurement of resazurin conversion, and SteadyLite luciferase reagent (Perkin-Elmer) was added (30 μl/well). Luminescence is detected with a Victor 2-V plate reader (Perkin-Elmer) and normalized to luciferase activity of DMSO control wells alone.

T1 sequence (P51448 266-523): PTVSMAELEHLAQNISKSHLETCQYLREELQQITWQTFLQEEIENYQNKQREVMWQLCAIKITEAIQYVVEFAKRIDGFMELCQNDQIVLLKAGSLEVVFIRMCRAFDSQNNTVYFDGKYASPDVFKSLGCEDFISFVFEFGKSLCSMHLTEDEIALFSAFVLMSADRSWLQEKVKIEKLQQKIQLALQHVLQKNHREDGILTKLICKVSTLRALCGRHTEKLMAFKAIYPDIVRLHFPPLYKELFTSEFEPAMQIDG

## O=S(=O)(c1ccccc1)N(CC(F)(F)F)c1ccc(C(O)(C(F)(F)F)C(F)(F)F)cc1 [Compound T0901317, N-(2,2,2-Trifluoro-ethyl)-N-[4-(2,2,2-trifluoro-1-hydroxy-1-trifluoromethyl-ethyl)-phenyl]-benzenesulfonamide, reference compound]
RORα (mRORα)
  effect on the transcription of RORα: no effects
SF-1 (human SF-1)
  effect on the transcription of SF-1: no effects
CHO cells
  concentration not cytotoxic to CHO cells: < 10 µM

## CCN(c1ccc(C(O)(C(F)(F)F)C(F)(F)F)cc1)S(=O)(=O)c1ccc([N+](=O)[O-])cc1 [OR-1050, N-Ethyl-4-nitro-N-[4-(2,2,2-trifluoro-1-hydroxy-1-trifluoromethyl-ethyl)-phenyl]-benzenesulfonamide]
RORα (mRORα)
  effect on the transcription of RORα: no effects
SF-1 (human SF-1)
  effect on the transcription of SF-1: no effects
CHO cells
  concentration not cytotoxic to CHO cells: 50 µM
